Reference: US7329649B2, “Combinatorial methods for inducing cancer cell death” (The Trustees of Columbia University in the City of New York, priority 2001, dated 2008)

Test system: mutated or wild type K-ras expressing pancreatic carcinoma cells
Assay: Cell growth and viable cell numbers (hemocytometer, MTT)
Assay type: cell-based, human
Method: FIG. 5. […] Cells were treated with the indicated agents for three days and viable cell counts were determined by hemocytometer.
Cell lines, culture conditions and growth assays.

Substance | growth suppression compared with AS K-ras PS ODN
SC PS ODN: scrambled K-ras PS ODN ACTAGCTATACTAGCTAT (SEQ ID NO:17) (DNA, all phosphorothioate, methylation of C not given here) | significantly less growth suppression
MM PS ODN: mismatched K-ras PS ODN CACTTGCAAATATTCAGT (SEQ ID NO:16) (DNA, all phosphorothioate, methylation of C not given here) | significantly less growth suppression
